This is an account of results in patent US9334263B2, “Compositions useful for treating disorders related to kit” (BLUEPRINT MEDICINES CORPORATION, priority 2013, dated 2016).

The target in assay [1] is T1, Kit D816V (HMC1.2 cells, Kit V560G and D816V) (Homo sapiens, UniProt P10721, D816V/V560G).
T1 construct: endogenous in cells; host or cells: HMC1.2 cells
The experiment in a line: HMC1.2 autophosphorylation assay (AlphaLISA, phospho-Y719 c-Kit). It counts as cell-based. The conditions noted are these: Kit autophosphorylation at tyrosine 719, 90 minutes, read-out: Cellular Activity. The protocol: HMC1.2 Autophosphorylation Assay:
10,000 HMC1.2 cells were incubated in 22 ul culture media (phenol-red free IMDM, no serum) in each well of a 384-well plate and serum starved overnight in a tissue culture incubator (5% CO2, 37° C.). A 10-point dose concentration series of compound (25 uM-95.4 pM) were then added to the cells in a volume of 3.1 ul to each well (0.25% DMSO final concentration). After 90 minutes, 6 ul of 5× AlphaLISA Lysis Buffer (Perkin Elmer) supplemented with a protease and phosphatase inhibitor cocktail (Cell Signaling Technologies) was added to each well and shaken at 450 rpm for 15 minutes at 4° C. 10 ul of phospho-Y719 c-Kit and total c-Kit antibodies (15 nM final concentration, Cell Signaling Technologies) and 50 ug/ml AlphaLISA rabbit acceptor beads (Perkin Elmer) were added to each well and shaken at 300 rpm at room temperature for 2 hours. 10 ul of 100 ug/ml streptavidin donor beads (Perkin Elmer) were added to each well, blocked from light with aluminum adhesive and shaken at 300 rpm at room temperature for 2 hours. Fluorescence signal was obtained on Envision (Perkin Elmer) by AlphaScreen 384 well HTS protocol.
This cell line contains Kit mutated at positions V560G and D816V resulting in constitutive activation of the kinase. The following compounds were tested in an assay to measure direct inhibition of Kit D816V kinase activity by assaying Kit autophosphorylation at tyrosine 719 on the Kit protein.
(Bead proximity is the source of the signal in Alpha formats.)

The target in assay [2] is T2, D816V Kit (Homo sapiens, UniProt P10721, D816V).
T2 construct: purchased Carna Bioscience 08-156
Put plainly: Kit D816V assay at Km (Caliper electrophoretic mobility shift). Type of assay: biochemical. The conditions noted are these: 15 uM ATP, 25 C, 90 minutes. The method, then:
In order to assess the activity of chemical compounds against the relevant kinase of interest, the Caliper LifeSciences electrophoretic mobility shift technology platform is used. Fluorescently labeled substrate peptide is incubated in the presence of kinase and ATP so that a […] proportion of the peptide is phosphorylated. At the end of the reaction, the mix of phosphorylated (product) and non-phosphorylated (substrate) peptides are passed through the microfluidic system of the Caliper EZ Reader 2, under an applied potential difference. The presence of the phosphate group on the product peptide provides a difference in mass and charge between those of the substrate peptide, resulting in a separation of the substrate and product pools in the sample. As the pools pass a LEDS within the instrument, these pools are detected and resolved as separate peaks. The ratio between these peaks therefore reflects the activity of the chemical matter at that concentration in that well, under those conditions.
The reaction was stopped by the addition of 70 ul of Stop buffer (100 mM HEPES pH 7.5, 0.015% Brij 35, 35 mM EDTA and 0.2% of Coating Reagent 3 (Caliper Lifesciences)). The plate was then read on a Caliper EZReader 2 (protocol settings: −1.9 psi, upstream voltage −700, downstream voltage −3000, post sample sip 35 s).

T2 sequence (P10721 26-976 D816V): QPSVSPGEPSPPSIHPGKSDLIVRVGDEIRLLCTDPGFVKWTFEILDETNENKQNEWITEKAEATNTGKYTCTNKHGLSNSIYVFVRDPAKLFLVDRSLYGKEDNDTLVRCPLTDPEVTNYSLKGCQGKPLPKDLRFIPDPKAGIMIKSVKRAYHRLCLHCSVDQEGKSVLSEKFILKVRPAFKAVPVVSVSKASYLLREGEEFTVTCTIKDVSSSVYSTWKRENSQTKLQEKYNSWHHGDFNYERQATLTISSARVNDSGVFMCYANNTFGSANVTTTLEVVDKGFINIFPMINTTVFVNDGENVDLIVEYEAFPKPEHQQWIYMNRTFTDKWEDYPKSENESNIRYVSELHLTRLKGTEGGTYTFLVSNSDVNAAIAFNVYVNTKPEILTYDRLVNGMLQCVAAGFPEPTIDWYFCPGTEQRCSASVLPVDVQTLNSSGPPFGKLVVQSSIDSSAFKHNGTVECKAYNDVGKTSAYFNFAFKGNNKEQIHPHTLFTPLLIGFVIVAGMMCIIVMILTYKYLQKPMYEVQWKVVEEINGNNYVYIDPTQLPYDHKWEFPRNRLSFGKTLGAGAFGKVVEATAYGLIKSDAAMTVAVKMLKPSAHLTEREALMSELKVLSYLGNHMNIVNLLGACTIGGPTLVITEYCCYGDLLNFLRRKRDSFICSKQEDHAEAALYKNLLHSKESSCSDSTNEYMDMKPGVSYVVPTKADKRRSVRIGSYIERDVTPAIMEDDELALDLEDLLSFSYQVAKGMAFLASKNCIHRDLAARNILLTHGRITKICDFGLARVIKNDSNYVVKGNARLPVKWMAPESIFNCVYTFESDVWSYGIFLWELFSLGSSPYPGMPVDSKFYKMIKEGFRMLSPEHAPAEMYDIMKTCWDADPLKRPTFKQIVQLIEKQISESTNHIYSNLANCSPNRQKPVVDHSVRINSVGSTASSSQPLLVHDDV
T1 sequence (P10721 26-976 V560G/D816V): as the sequence (P10721 26-976 D816V) above, with V535G counted along it

Consider `Fc1ccc(Cc2cnc(N3CCN(c4ncnc(Nc5ccc6c(c5)CNCC6)n4)CC3)nc2)c(F)c1` [Compound 138], for which the IC50 in assay [1] was 10 to 100 nM; in assay [2], under 1 nM.
Regarding `OC[C@H](O)COc1ccc(Nc2ncnc(N3CCN(c4ncc(Cc5ccccc5)cn4)CC3)n2)cc1` [Compound 131], the IC50 was in the range of 10 to 100 nM in assay [1] and 1.01 to 10 nM in assay [2].
Regarding `Cc1cc(Nc2ncnc(N3CCN(c4ncc(Cc5ccccc5)cn4)CC3)n2)no1` [Compound 11], the IC50 in assay [2] was in the range of 10 to 100 nM.
As to `C[C@@H]1CN(c2ncnc(Nc3cnn(C[C@@H]4CNCCO4)c3)n2)CCN1c1ncc(Cc2ccccc2)cn1` [Compound 183], the figures for the IC50 in assay [1] and in assay [2] were 10 to 100 nM and 1.01 to 10 nM, respectively.
In the case of `c1ccc(Cc2cnc(N3CCN(c4ncnc(Nc5ccc(O[C@@H]6CCNC6)cc5)n4)CC3)nc2)cc1` [Compound 107], the results for the IC50 in assay [1] and in assay [2] were 10 to 100 nM and under 1 nM, respectively.
On to `Cc1c(Nc2ncnc(N3CCN(c4ncc(Sc5ccc(F)cc5)cn4)CC3)n2)cnn1C[C@@H]1CNCCO1` [Compound 273], for which the IC50 in assay [1] fell in the range of 10 to 100 nM; in assay [2] it was 1.01 to 10 nM.
Turning to `CC1(C)CNCc2cc(Nc3ncnc(N4CCN(c5ncc(Cc6ccccc6)cn5)CC4)n3)ccc21` [Compound 99], the IC50 is under 10 nM in assay [1] and 1.01 to 10 nM in assay [2].
In the case of `Cc1c(Nc2ncnc(N3CCN(c4ncc(Cc5ccccc5)c(N)n4)CC3)n2)cnn1C[C@@H]1CNCCO1` [Compound 245], the IC50 in assay [1] is 10 to 100 nM; in assay [2], under 1 nM.
On the same counts, the results for `CC(C)(c1ccccc1)c1cnc(N2CCN(c3ncnc(Nc4ccc([C@@H](O)CO)cc4)n3)CC2)nc1` [Compound 120] are 10 to 100 nM and under 1 nM.
On to `Fc1ccc(Cc2cnc(N3CCN(c4ncnc(Nc5ccc6c(c5)CNCC6)n4)CC3)nc2)cc1F` [Compound 139], for which the values for the IC50 in assay [1] and in assay [2] were 10 to 100 nM and 1.01 to 10 nM, respectively.
For `OC[C@H]1CN(c2ncnc(Nc3cnn(CC4CNCCO4)c3)n2)CCN1c1ncc(Cc2ccccc2)cn1` (stereo partly shown) [Compound 247], the IC50 in assay [2] is 10 to 100 nM.
For `C[C@@]1(O)CCCN(c2ccc(Nc3ncnc(N4CCN(c5ncc(Cc6ccccc6)cn5)CC4)n3)cc2)C1` [Compound 227], the IC50 in assay [1] is 10 to 100 nM; in assay [2], 1.01 to 10 nM.
For `C[C@H](O)Cn1cc(Nc2ncnc(N3CCN(c4ncc(Sc5ccccc5F)cn4)CC3)n2)cn1` [Compound 100], in that order: 10 to 100 nM and under 1 nM.
On to `OC1(c2ccc(Nc3ncnc(N4CCN(c5ncc(Cc6ccccc6)cn5)CC4)n3)cc2)CCCCC1` [Compound 155], for which the IC50 in assay [1] lay within 10 to 100 nM; in assay [2] it was 1.01 to 10 nM.
`Cc1c(Nc2ncnc(N3CCN(c4ncc(Sc5ccccc5F)cn4)[C@H](C)C3)n2)cnn1C[C@H](O)CO` [Compound 264]: the figures for the IC50 in assay [1] and in assay [2] were 100 to 1000 nM and 1.01 to 10 nM, respectively.
Regarding `CN1CCNC[C@@H]1Cn1cc(Nc2ncnc(N3CCN(c4ncc(Cc5ccccc5)cn4)CC3)n2)cn1` [Compound 177], the IC50 in assay [1] was 10 to 100 nM; in assay [2] it was 1.01 to 10 nM.
For `Fc1ccccc1Oc1cnc(N2CCN(c3ncnc(Nc4cnn(C[C@@H]5CNCCO5)c4)n3)CC2)nc1` [Compound 203, (S)-4-(4-(5-(2-fluorophenoxyl)pyrimidin-2-yl)piperazin-1-yl)-N-(1-(morpholin-2-ylmethyl)-1H-pyrazol-4-yl)-1,3,5-triazin-2-amine], in that order: 10 to 100 nM and 1.01 to 10 nM.
`Fc1ccc(Sc2ncc(N3CCN(c4ncnc(Nc5cnn(C[C@@H]6CNCCO6)c5)n4)CC3)nn2)cc1` [Compound 258]: the values for the IC50 in assay [1] and in assay [2] were 10 to 100 nM and 1.01 to 10 nM, respectively.
Take `Cc1c(Nc2ncnc(N3CCN(c4ncc(Sc5ccccc5F)cn4)CC3)n2)cnn1CC(C)(C)O` [Compound 210]: the IC50 in assay [1] is 10 to 100 nM; in assay [2], under 1 nM.
Regarding `C[C@@H]1CN(c2ncnc(Nc3ccc(N4CCC[C@@H](O)C4)cc3)n2)CCN1c1ncc(Cc2ccccc2)cn1` [Compound 222], the IC50 was in the range of 10 to 100 nM in assay [1] and 1.01 to 10 nM in assay [2].
For `C[C@H](O)CNc1ccc(Nc2ncnc(N3CCN(c4ncc(Cc5ccccc5)cn4)CC3)n2)cc1` [Compound 81], the IC50 in assay [1] is 10 to 100 nM; in assay [2] it was under 1 nM.
Consider `O[C@H]1CCN(c2ccc(Nc3ncnc(N4CCN(c5ncc(Cc6ccccc6)cn5)CC4)n3)cc2)C1` [Compound 112], for which the IC50 in assay [1] lay in the range of 100 to 1000 nM; in assay [2] it was 1.01 to 10 nM.
`COc1nc(N2CCN(c3ncnc(Nc4cnn(C[C@@H]5CNCCO5)c4)n3)CC2)ncc1Cc1ccccc1` [Compound 246]: the IC50 fell in the range of 1000 to 10000 nM in assay [1] and 1.01 to 10 nM in assay [2].
Take `Cc1c(Nc2ncnc(N3CCN(c4ncc(Br)cn4)CC3)n2)cnn1C[C@@H]1CNCCO1` [Compound 142]: the IC50 in assay [2] fell in the range of 10 to 100 nM.
Turning to `c1ccc(Sc2cnc(N3CCN(c4ncnc(Nc5cnn(C[C@@H]6CNCCO6)c5)n4)CC3)nc2)cc1` [Compound 199], the values for the IC50 in assay [1] and in assay [2] were 10 to 100 nM and 1.01 to 10 nM, respectively.
On the same counts, the results for `Fc1ccc(Cc2cnc(N3CCN(c4ncnc(Nc5cnn(C[C@@H]6CNCCO6)c5)n4)CC3)nc2)cc1` [Compound 196] are 10 to 100 nM and under 1 nM.
On to `Fc1cc(O[C@H]2CCCNC2)ccc1Nc1ncnc(N2CCN(c3ncc(Cc4ccccc4)cn3)CC2)n1` [Compound 238], for which the IC50 is 100 to 1000 nM in assay [1] and 1.01 to 10 nM in assay [2].
As for `Cc1nn(C[C@H](C)O)cc1Nc1ncnc(N2CCN(c3ncc(Sc4ccc(F)cc4)cn3)CC2)n1` [Compound 152], the IC50 in assay [1] was under 10 nM; in assay [2] it was under 1 nM.
`c1ccc(Cc2cnc(N3CCN(c4ncnc(Nc5cnn(C[C@@H]6COCCO6)c5)n4)CC3)nc2)cc1` [Compound 134]: the IC50 in assay [1] is 10 to 100 nM; in assay [2], under 1 nM.
`C[C@H](c1ccccc1)c1cnc(N2CCN(c3ncnc(Nc4cnn(C[C@@H]5CNCCO5)c4)n3)CC2)nc1` [Compound 186, N-(1-((S)-morpholin-2-ylmethyl)-1H-pyrazol-4-yl)-4-(4-(5-((R)-1-phenylethyl)pyrimidin-2-yl)piperazin-1-yl)-1,3,5-triazin-2-amine]: the IC50 in assay [1] was 10 to 100 nM; in assay [2], under 1 nM.
With `CC(O)c1ccc(Nc2ncnc(N3CCN(c4ncc([C@@](C)(N)c5ccc(F)cc5)cn4)CC3)n2)cc1` (stereo partly shown) [Compound 140], in assay [2], the IC50 was under 1 nM.
As to `c1nc(Nc2cnn(C[C@@H]3CNCCO3)c2)nc(N2CCN(c3ncc(CCC4CC4)cn3)CC2)n1` [Compound 67], in assay [2], the IC50 lay within 10 to 100 nM.
Turning to `C(#CC1CC1)c1cnc(N2CCN(c3ncnc(Nc4cnn(C[C@@H]5CNCCO5)c4)n3)CC2)nc1` [Compound 63, (S)-4-(4-(5-(cyclopropylethynyl)pyrimidin-2-yl)piperazin-1-yl)-N-(1-(morpholin-2-ylmethyl)-1H-pyrazol-4-yl)-1,3,5-triazin-2-amine], in assay [2], the IC50 was over 100 nM.
The same measure, in the same setting: next, `FC(F)(c1ccccc1)c1cnc(N2CCN(c3ncnc(Nc4cnn(C[C@@H]5CNCCO5)c4)n3)CC2)nc1` [Compound 254]: 1.01 to 10 nM; `CNc1ncnc(N2CCN(c3ncc(Cc4ccccc4)c(N)n3)CC2)n1` [Compound 1]: over 100 nM; `Clc1ncc(N2CCN(c3ncnc(Nc4ccc5c(c4)CNCC5)n3)CC2)nn1` [Compound 8]: 10 to 100 nM.
As for `Nc1nc(N2CCN(c3ncnc(Nc4cnn(CC5CN(C=O)CCO5)c4)n3)CC2)ncc1Cl` (stereo not shown) [Compound 90], in assay [2], the IC50 was 10 to 100 nM.
Take `Nc1nc(N2CCN(c3ncnc(NC4CC4)n3)CC2)ncc1Cc1ccccc1` [Compound 3]: in assay [2], the IC50 is over 100 nM.
On to `C[C@@](O)(c1ccc(F)cc1)c1cnc(N2CCN(c3ncnc(Nc4cnn(C[C@@H]5CNCCO5)c4)n3)CC2)nc1` (single isomer, unassigned) [Compound 270], for which the IC50 in assay [2] was 1.01 to 10 nM.
Regarding `C[C@@H]1CN(c2ncnc(Nc3cnn(C[C@@H]4CNCCO4)c3)n2)CCN1c1ncc(Br)c(N)n1` [Compound 194], the IC50 in assay [2] lay in the range of 10 to 100 nM.
